In patent US8633301B2, “Antitumor combinations containing antibodies recognizing specifically CD38 and vincristine” (Sanofi, priority 2008, dated 2014):
“And” between values parts separate entries of the source, which are not always exact repeats. Equal values may be shown once. “Also recorded” adds a separate entry of the source.

Key:
[1] = Toxicity (body weight change, drug death) in DND-41 tumor-bearing SCID mice; assay type: in vivo
murine CD38 = biological target: T1, murine CD38 (Mus musculus, UniProt P56528); test: Cross-reactivity of the antibody with murine CD38; assay type: binding
T1 sequence (P56528 1-304): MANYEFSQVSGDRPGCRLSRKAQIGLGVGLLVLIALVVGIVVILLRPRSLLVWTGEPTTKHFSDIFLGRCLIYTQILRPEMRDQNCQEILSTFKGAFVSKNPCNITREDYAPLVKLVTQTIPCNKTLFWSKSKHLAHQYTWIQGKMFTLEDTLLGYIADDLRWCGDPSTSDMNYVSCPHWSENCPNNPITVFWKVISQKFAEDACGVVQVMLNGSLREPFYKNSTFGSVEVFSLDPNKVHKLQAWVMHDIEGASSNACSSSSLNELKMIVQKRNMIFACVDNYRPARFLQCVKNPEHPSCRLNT

[2] = tested on: human T-cell acute lymphoblastic leukemia (T-ALL) cell line, DND-41; test: Antitumor efficacy against advanced DND-41 tumors implanted in SCID mice; conditions: for T-C (tumor growth delay): time to reach 750 mg; for TFS (tumor free survivors): end of study day 160
Protocol: A product is considered to be active if log10 cell kill is greater than or equal to 0.7. A product is considered to be very active if log10 cell kill is greater than or equal to 2.8.
The animals subjected to the experiment, generally mice, are subcutaneously grafted bilaterally with 30 to 60 mg of a tumor fragment on day 0. The animals bearing tumors are randomized based on their tumor size before being subjected to the various treatments and controls. Chemotherapy begins when tumors have reached a predetermined size after grafting, depending on the type of tumor, and the animals are observed every day. […] The groups are then weighed once or twice a week until the end of the trial.
The tumors are measured 1 to 5 times a week, depending on the tumor doubling time, until the tumor reaches approximately 2 g, or until the animal dies (if this occurs before the tumor reaches 2 g). The animals are necropsied immediately after euthanasia or death.
The selected tumor model was a transplantable human T-cell acute lymphoblastic leukemia (T-ALL) cell line, DND-41, implanted in SCID mice.
Vincristine was formulated in 5% glucose in water.
Tumor doubling time=3.4 days.

[3] = hu38SB19 alone 40.0 mg/kg/inj (total 160.0) IV days 18, 21, 24, 27
[4] = hu38SB19 alone 40.0 mg/kg/inj IV
[5] = vincristine alone 0.3 mg/kg/inj (total 1.2) IV
[6] = vincristine alone 0.5 mg/kg/inj (total 2.0) IV
[7] = vincristine alone 0.8 mg/kg/inj (total 3.2) IV
[8] = vincristine alone 0.3 mg/kg/inj IV
[9] = vincristine alone 0.5 mg/kg/inj IV
[10] = vincristine alone 0.8 mg/kg/inj IV

hu38SB19: humanized anti-CD38 monoclonal antibody 38SB19; VH SEQ ID NO: 66, VL SEQ ID NO: 62 or 64
tolerability / toxicity ([1]; hu38SB19 alone 40 mg/kg/inj): well tolerated
BWC (body weight change) at nadir [1, 3]: −2.1%
drug death [1, 3]: 0/6
cross-reactivity with murine CD38 (murine CD38): lack of cross-reactivity
log10 cell kill [2, 3]: 0.5
T-C (tumor growth delay) [2, 3]: 6.1 days
comments (activity/toxicity rating) [2, 4]: not active; also recorded: HDT- Inactive
TFS (tumor free survivors) [2, 4]: 0/6

CC[C@]1(O)C[C@H]2CN(CCc3c([nH]c4ccccc34)[C@@](C(=O)OC)(c3cc4c(cc3OC)N(C=O)[C@H]3[C@@](O)(C(=O)OC)[C@H](OC(C)=O)[C@]5(CC)C=CCN6CC[C@]43[C@@H]65)C2)C1 [vincristine, Vincristine]
BWC (body weight change) at nadir [1, 5]: −0.4%
drug death ([1]; vincristine alone 0.3 mg/kg/inj (total 1.2) IV days 18, 21, 24, 27): 0/6
BWC (body weight change) at nadir [1, 6]: −5.3%
drug death ([1]; vincristine alone 0.5 mg/kg/inj (total 2.0) IV days 18, 21, 24, 27): 0/6
BWC (body weight change) at nadir [1, 7]: −10.4%
drug death ([1]; vincristine alone 0.8 mg/kg/inj (total 3.2) IV days 18, 21, 24, 27): 0/6
BWC (body weight change) at nadir ([1]; vincristine alone 1.3 mg/kg/inj (total 5.2) IV): −25.2%
drug death ([1]; vincristine alone 1.3 mg/kg/inj (total 5.2) IV days 18, 21, 24, 27): 0/6
comments (activity/toxicity rating) ([1]; vincristine alone 1.3 mg/kg/inj IV): Toxic (−25% BWC)
body weight loss at nadir ([1]; vincristine alone 1.3 mg/kg/injection, nadir on day 27): 25.2%
highest nontoxic dose (HNTD) ([1]; vincristine alone IV days 18, 21, 24, 27, total injected dose 3.2 mg/kg): 0.8 mg/kg/inj
log10 cell kill [2, 5]: 1.4
T-C (tumor growth delay) [2, 5]: 15.6 days
comments (activity/toxicity rating) [2, 8]: remained active
TFS (tumor free survivors) [2, 8]: 0/6
log10 cell kill [2, 6]: 3.8
T-C (tumor growth delay) [2, 6]: 43.3 days
comments (activity/toxicity rating) [2, 9]: Highly active
TFS (tumor free survivors) [2, 9]: no TFS and 0/6
log10 cell kill [2, 7]: 4.4
T-C (tumor growth delay) [2, 7]: 49.6 days
comments (activity/toxicity rating) [2, 10]: HNTD - Highly active
TFS (tumor free survivors) [2, 10]: no TFS and 0/6
